Settings: for specific volume: Gas, isochoric method; for mass density: Liquid, Vibrating tube method

F/C=C(\F)C(F)(F)F [(Z)-1,2,3,3,3-pentafluoro-1-propene]
Settings | mass density [kg/m3] | specific volume [m3/kg]
323.15 K, 169.7 kPa | – | 0.116
323.15 K, 245.6 kPa | – | 0.079
323.15 K, 1296 kPa | 1172.9 | –
323.15 K, 7500 kPa | 1226.8 | –
323.15 K, 10001 kPa | 1243.3 | –
323.15 K, 12499 kPa | 1257.6 | –
323.15 K, 15000 kPa | 1270.8 | –
323.15 K, 17499 kPa | 1282.9 | –
323.15 K, 19999 kPa | 1294 | –
323.15 K, 22500 kPa | 1304.4 | –
323.15 K, 25001 kPa | 1314.1 | –
323.15 K, 27500 kPa | 1323.2 | –
323.15 K, 30001 kPa | 1331.8 | –
323.15 K, 32501 kPa | 1340 | –
323.15 K, 35001 kPa | 1347.7 | –
323.16 K, 466.1 kPa | – | 0.04
323.16 K, 1499 kPa | 1175.1 | –
323.16 K, 2000 kPa | 1180.3 | –
323.16 K, 2502 kPa | 1185.5 | –
323.16 K, 4998 kPa | 1207.9 | –
328.07 K, 566.8 kPa | – | 0.033
328.11 K, 360.1 kPa | – | 0.054
328.14 K, 669.2 kPa | – | 0.027
328.15 K, 172.6 kPa | – | 0.116
328.15 K, 249.7 kPa | – | 0.079
328.15 K, 475.1 kPa | – | 0.04
333.1 K, 365.4 kPa | – | 0.054
333.1 K, 578.2 kPa | – | 0.033
333.13 K, 682.7 kPa | – | 0.027
333.15 K, 174.9 kPa | – | 0.116
333.15 K, 253.9 kPa | – | 0.079
333.15 K, 483.9 kPa | – | 0.04
333.15 K, 1502 kPa | 1124.9 | –
333.15 K, 1999 kPa | 1132 | –
333.15 K, 2500 kPa | 1138.6 | –
333.15 K, 5000 kPa | 1166.8 | –
333.15 K, 7500 kPa | 1189.4 | –
333.15 K, 10000 kPa | 1208.6 | –
333.15 K, 12500 kPa | 1225.4 | –
333.15 K, 15000 kPa | 1240.4 | –
333.15 K, 17500 kPa | 1255 | –
333.15 K, 20000 kPa | 1266.6 | –
333.15 K, 22500 kPa | 1278.1 | –
333.15 K, 25003 kPa | 1288.8 | –
333.15 K, 27500 kPa | 1298.8 | –
333.15 K, 29999 kPa | 1308.2 | –
333.15 K, 32500 kPa | 1317.8 | –
333.15 K, 35000 kPa | 1326.3 | –
338.08 K, 589.4 kPa | – | 0.033
338.08 K, 696.3 kPa | – | 0.027
338.14 K, 371.5 kPa | – | 0.054
338.15 K, 177.9 kPa | – | 0.116
338.15 K, 257.7 kPa | – | 0.079
338.15 K, 492.8 kPa | – | 0.04
343.08 K, 600.4 kPa | – | 0.033
343.09 K, 377.8 kPa | – | 0.054
343.13 K, 710 kPa | – | 0.027
343.15 K, 181 kPa | – | 0.116
343.15 K, 262.4 kPa | – | 0.079
343.15 K, 501.5 kPa | – | 0.04
343.15 K, 1800 kPa | 1070 | –
343.15 K, 2000 kPa | 1074.1 | –
343.15 K, 2500 kPa | 1083.8 | –
343.15 K, 5001 kPa | 1121.1 | –
343.15 K, 7500 kPa | 1149.2 | –
343.15 K, 10001 kPa | 1172 | –
343.15 K, 12500 kPa | 1191.5 | –
343.15 K, 15000 kPa | 1208.5 | –
343.15 K, 17500 kPa | 1223.8 | –
343.15 K, 20000 kPa | 1237.6 | –
343.15 K, 22500 kPa | 1250.3 | –
343.15 K, 27500 kPa | 1273.2 | –
343.15 K, 30000 kPa | 1283.5 | –
343.15 K, 32500 kPa | 1293.3 | –
343.15 K, 35000 kPa | 1302.5 | –
343.16 K, 25000 kPa | 1262.3 | –
348.06 K, 611.4 kPa | – | 0.033
348.07 K, 383.7 kPa | – | 0.054
348.14 K, 723.7 kPa | – | 0.027
348.15 K, 183.8 kPa | – | 0.116
348.15 K, 266.6 kPa | – | 0.079
348.15 K, 510.2 kPa | – | 0.04
353.05 K, 390.1 kPa | – | 0.054
353.11 K, 622.8 kPa | – | 0.033
353.13 K, 737.3 kPa | – | 0.027
353.14 K, 20000 kPa | 1209 | –
353.15 K, 186.6 kPa | – | 0.116
353.15 K, 270.7 kPa | – | 0.079
353.15 K, 518.9 kPa | – | 0.04
353.15 K, 5000 kPa | 1070.7 | –
353.15 K, 7500 kPa | 1106.5 | –
353.15 K, 10000 kPa | 1134 | –
353.15 K, 12500 kPa | 1156.8 | –
353.15 K, 15000 kPa | 1176.3 | –
353.15 K, 17500 kPa | 1193.5 | –
353.15 K, 22500 kPa | 1223 | –
353.15 K, 25000 kPa | 1235.9 | –
353.15 K, 27500 kPa | 1247.9 | –
353.15 K, 30000 kPa | 1259 | –
353.15 K, 32502 kPa | 1269.4 | –
353.16 K, 2500 kPa | 1016.9 | –
353.16 K, 35001 kPa | 1279.2 | –
358.11 K, 397.3 kPa | – | 0.054
358.15 K, 189.5 kPa | – | 0.116
358.15 K, 274.5 kPa | – | 0.079
358.15 K, 527.6 kPa | – | 0.04
358.15 K, 750.7 kPa | – | 0.027
358.17 K, 633.7 kPa | – | 0.033
363.13 K, 764 kPa | – | 0.027
363.14 K, 278.7 kPa | – | 0.079
363.14 K, 644.4 kPa | – | 0.033
363.16 K, 192.3 kPa | – | 0.116
363.16 K, 536.1 kPa | – | 0.04
363.29 K, 404 kPa | – | 0.054
368.03 K, 409.8 kPa | – | 0.054
368.1 K, 777.4 kPa | – | 0.027
368.15 K, 194.3 kPa | – | 0.116
368.15 K, 544.7 kPa | – | 0.04
368.16 K, 282.9 kPa | – | 0.079
368.16 K, 655.3 kPa | – | 0.033
